Assay type in all cases: cell-based
Test [1] relates to IL1B and TNFA mRNA levels in HDAC9-overexpressing NCM356 cells. As to the kind of experiment: IL1B and TNFA mRNA (qPCR) in HDAC9-overexpressing NCM356 colonocytes.
Experimental: NCM356 colon epithelial cell lines were growth in M3:10 (INCELL, San Antonio, Tex.). A CMV-driven-HDAC9 vector was used to overexpress HDAC9 levels in NCM356 cells. IL1B and TNFA mRNA levels were measured by qPCR analysis as described previously (Fang K et al. Am J Pathol, 188(3):586-99, 2018).
The test system of test [2] is BC3C bladder cancer cell line. In words: Cell viability assay (CellTiter Glo), BC3C. The conditions noted are these: BC3C cell growth. The method, then:
(§1) Pancreatic cancer cell lines (MIA PaCa-2 and CAPAN-2) were purchased from ATCC. MIA PaCa-2 were grown in DMEM and CAPAN-2 in McCoy's 5A (Gibco). Colon cancer cell lines (SW480 and HT-29) were purchased from ATCC. SW480 were grown in Leibovitz's L-15 (ATCC) and HT-29 in McCoy's 5A (Gibco). Lung cancer cell lines (NCI 460 and NCI 1975) were purchased from ATCC and grown in RPMI 1640 (Gibco). PC-3 prostate cancer cell line was purchased from ATCC and grown in F-12K (ATCC). Bladder cancer cell line 5637 was purchased from ATCC and RT-112 was purchased from Sigma-Aldrich and was grown in RPMI 1640 (Gibco). […] IL1B and TNFA mRNA levels were measured by qPCR analysis as described previously (Fang K et al. Am J Pathol, 188(3):586-99, 2018).
(§2) 1.8×10^3 cells/well were plated in quadruplicates in 96-well plate and treated with exogenously added MJK analogues 6 hours after plating. […] Cell growth was assessed 1, 3, 5 or 7 days after plating using the CellTiter Glo Luminescence Cell Viability Assay (Promega) according to manufacturer's protocol. For the experiments where the effect of combinatorial treatment of MJK-004 analogues with chemotherapy was assessed, treatment of cells with gemcitabine (10 nM) or 5-fluouracil (2000 nM) was performed one day after MJK-004 treatment and the cells were further treated with exogenously added MJK analogues 2 days later. […]

For test [3], the system named is EJ28 bladder cancer cell line. In words: Cell viability assay (CellTiter Glo), EJ28. The conditions noted are these: Homo sapiens, EJ-28; EJ28 cell growth. The method, then: as §1, §2
For test [4], the system named is RT-112 bladder cancer cells. As to the kind of experiment: Anchorage-independent cell growth assay (colonies in soft agar). The conditions noted are these: RT-112, treated at 1xIC50 or 2xIC50 for 3 days. The method, then: Quadruplicate samples of 1×10^6 bladder cancer cells, that were previously untreated or treated with the MJK-004 at the concentration corresponding to the 1×IC50 or 2×IC50 for each cell line (as assessed at the third day after cells' plating and treatment) for 3 days, were assayed in 96-well plates for colony formation using the CytoSelect Cell Transformation kit (Cell Biolabs, Inc) according to manufacturer's protocol. Seven days later, live cells were detected using a colorimetric format. The MTT dye was added directly to the cultured cells followed by a detergent solution. Quantitation was performed using a standard microplate reader at 540-570 nm. Data were expressed as the mean±S.D.

Test [5] has as its system NCI-1975 lung cancer cell line. As to the kind of experiment: Cell viability assay (CellTiter Glo), NCI-1975. The conditions noted are these: 120 h; NCI-1975, 20 uM, day 5; read-out: % growth inhibition. Here is the method: as §1, §2
Test [6] has as its system CAPAN-2 pancreatic cancer cell line. As to the kind of experiment: Cell viability assay (CellTiter Glo), CAPAN-2. To be noted: Homo sapiens, 120 h; CAPAN-2, 20 uM, day 5; read-out: % growth inhibition. Here is the method:
as §1, §2

Test [7] deals with SW480 colon cancer cell line. In words: Cell viability assay (CellTiter Glo), SW480. The conditions noted are these: Homo sapiens, 120 h; SW480, 20 uM, day 5; read-out: % growth inhibition. Here is the method: as §1, §2
In test [8] the test system is MIA PaCa-2 pancreatic cancer cell line. In words: Cell viability assay (CellTiter Glo), MIA PaCa-2. The conditions noted are these: Homo sapiens, 120 h; MIA PaCa-2, 20 uM, day 5; read-out: % growth inhibition. Here is the method: as §1, §2
Test [9] deals with HT-29 colon cancer cell line. As to the kind of experiment: Cell viability assay (CellTiter Glo), HT-29. The conditions noted are these: Homo sapiens, 120 h; HT-29, 20 uM, day 5; read-out: % growth inhibition. Here is the method:
as §1, §2

The test system of test [10] is PC-3 prostate cancer cell line. In words: Cell viability assay (CellTiter Glo), PC-3. The conditions noted are these: 120 h; PC-3, 20 uM, day 5; read-out: % growth inhibition. The method, then: as §1, §2
The test system of test [11] is NCI-460 lung cancer cell line. In words: Cell viability assay (CellTiter Glo), NCI-460. To be noted: 120 h; NCI-460, 20 uM, day 5; read-out: % growth inhibition. Here is the method:
as §1, §2

In the case of `Cl.Cn1c(/C=C/C(=O)NO)ccc1/C=C/C(=O)c1cccnc1` [MJK008, (E)-N-Hydroxy-3-(1-methyl-5-((E)-3-oxo-3-(pyridin-3-yl)prop-1-en-1-yl)-1H-pyrrol-2-yl)ac-rylamide hydrochloride], the “IL1B and TNFA mRNA levels (inflammatory response)” value in [1] is “reduced substantially the inflammatory response”.
Regarding `Cn1c(/C=C/C(=O)NO)ccc1/C=C/C(=O)c1cccnc1` [MJK006, (E)-N-hydroxy-3-(1-methyl-5-((E)-3-oxo-3-(pyridin-3-yl)prop-1-en-1-yl)-1H-pyrrol-2-yl)acrylamide], the half-inhibitory concentration (IC50) in test [2] was determined as 36.4 µM; in test [3], 352 µM.
Turning to `Cn1c(/C=C/C(=O)NO)ccc1/C=C/C(=O)c1cccs1` [MJK004, (E)-N-hydroxy-3-(1-methyl-5-((E)-3-oxo-3-(thiophen-2-yl)prop-1-en-1-yl)-1H-pyrrol-2-yl)acrylamide], the results for the concentration for half-maximal inhibition (IC50) in test [2] and in [3] were 5.85 µM and 6.62 µM, respectively. In addition, in test [4], the “ability to form colonies in soft agar” value is on record as “reduced significantly”.
Regarding `Cn1c(/C=C/C(=O)NO)ccc1/C=C/C(=O)c1cccc(F)c1` [MJK001, (E)-3-(5-((E)-3-(3-Fluorophenyl)-3-oxoprop-1-en-1-yl)-1-methyl-1H-pyrrol-2-yl)-N-hydro-xyacrylamide], the inhibition at 20 µM in test [5] was 11.8%; in [6], 42.7%; in test [7], 58.4%; in test [8], 0%; in [9] it was 19.7%; in test [10] it was 26.8%. Besides, the inhibition at 20 µM in [11] was found to be 3.42%.

Values taken from US11952362B2, “Compositions and methods for treating epigenetic disease” (The Regents of the University of California, priority 2018, dated 2024).
